From patent US20180078615A1, “USE OF CCL2 TO INHIBIT ABNORMAL UTERINE BLEEDING” (UNIVERSITY OF SOUTH FLORIDA, priority 2015, published 2018)
Entries after “also recorded” stand apart in the source; their conditions may differ.

Tests used:
VSMCs [1] = experiment: Transwell insert migration assay; assay type: cell-based, human; settings: 12-h incubation, 10^−7 M; control 48.4%
Description: VSMCs (75,000 cells/200 μL) were suspended in M231 containing 1% charcoal striped FBS and either 0.1% ethanol (vehicle control) or the corresponding steroids and seeded onto insert wells (transwell filter with 12-μm pores; EMD Millipore). The inserts were then placed in 24-well plates containing 500 μL M231 with 1% charcoal striped FBS. After 12 h, cells remaining on the upper surface of the filter were removed with a cotton swab. Migrated cells were trypsinized, centrifuged, and resuspended in 200 μL of M231 medium. The cell suspensions were mixed with 200 μL 10% ethanol containing 0.4% Trypan blue dye and the live cell number was counted by Countess Automated Cell Counter (Invitrogen). See further details in SI Materials and Methods.
Cultured VSMCs were grown in T-75 cell culture flasks in M231 (Life Technologies) with smooth muscle growth supplement (Life Technologies) with 100 U/mL penicillin, 100 μg/mL streptomycin, 0.25 μg/mL fungizone. Confluent VSMCs were washed twice with 1×PBS to remove residual serum, and then trypsinized, resuspended (75,000 cells per 200 μL per well) in M231 with 1% charcoal striped FBS with 0.1% ethanol (vehicle, control), 10^−7 M MPA (Sigma-Aldrich), 10^−7 M ETO (Organon), or 10^−7 M P4 (Sigma-Aldrich)±rCCL2 (R&D Systems) and seeded on insert wells (transwell filter with 12-μm pores; EMD Millipore), which were then placed in 24-well plates containing 500 μL M231 with 1% charcoal striped FBS. After 12 h, cells remaining on the upper surface of the filter were removed with a cotton swab. Migrated cells attached to the lower surface of each insert or to the surface of lower wells were collected by trypsinization, followed by centrifugation and resuspension in 200 μL of M231 medium. The cell suspensions were mixed with 200 μL 10% ethanol containing 0.4% Trypan blue dye (selectively stains only dead cells blue, whereas live cells with intact cell membranes remain unstained) for 5 min. A mixture of 100 μL M231 and 100 μL 10% ethanol containing 0.4% Trypan blue dye was used as a negative control. To detect live cell numbers, 10 μL of final cell/Trypan blue dye suspension from each treatment condition was pipetted into Countess Cell Counting Chamber Slide and counted by using Countess Automated Cell Counter (Invitrogen). The counting procedure was performed in duplicate.

VSMCs [2] = experiment: VSMC apoptosis assay (ELISA, cleaved caspase-3 immunostaining, nuclear fragmentation); assay type: cell-based, human; settings: 10^−7 M, 48 h, vs control
Description: VSMCs were grown in 96-well plates or 8-well chamber slides and incubated with 10^−7 M of MPA (Sigma-Aldrich) or ETO (Organon) or P4 (Sigma-Aldrich) or vehicle±rCCL2 (R&D Systems)±STAT1 inhibitor, 5′-methyl-thioadenosine (MTA; EMD Millipore) (19) for 48 or 72 h. VSMCs were then analyzed for apoptosis by an ELISA based apoptosis kit (Roche) or cleaved-caspase 3 immunostaining. VSMC proliferation was measured by BrdU incorporation Kit (Cell Signaling). (See further details in SI Materials and Methods).
This assay detects late-stage apoptosis by quantifying specific mono- and oligonucleosomes in the cytoplasmic fraction of cell lysates using mouse monoclonal antibodies directed against DNA and histones. In late-stage apoptosis (following nuclear fragmentation), cell cytoplasm contains mono- and oligonucleosomes, absent in normal (nonapoptotic) cells. The nucleosomes contained in the sample bind via their histone component to the immobilized antihistone antibody. Anti-DNA peroxidase reacts with the DNA part in the nucleosome. After removal of unbound peroxidase conjugate, the amount of peroxidase retained in the immunocomplex is detected by measuring colorimetric reaction.
Apoptosis index was determined in a second set of experiments. VSMC cultures (10,000 cells per wells) were incubated in 96-well plates with the treatments described above, at room temperature. Briefly, at the end of 48- or 72-h incubation periods, cells were washed three times in ice-cold PBS and cell lysate prepared by incubating each well in 200-μL lysis buffer for 30 min, followed by centrifugation at 200×g for 10 min. Duplicate 20-μL supernatant of cytoplasmic fractions from each treatment were carefully pipetted into streptavidin-coated microplates. A 20-μL VSMC culture supernatant devoid of cell fractions was used as a negative control, and 1-, 5-, 10-, and 20-μL supernatants containing camptothecin-induced apoptotic cell fractions were used as positive controls (ELISA based cell death detection kit^plus, Roche Applied Science). Incubation buffer was used as background control (Roche Applied Science). Then, each well was brought to 100 μL by adding immunoreagent (peroxidase-conjugated anti-DNA complex) and incubated by gentle shaking (300 rpm) for 2 h. […] The immunoreaction was stopped with 100 μL ABTS Stop Solution and measured at 405 nm against 100 μL ABTS solution+100 μL ABTS stop solution as a blank (reference wavelength 490 nm) using Spectra Max190 microplate reader (Molecular Devices). […]
The first set of eight-well chamber slides was processed for cleaved caspase-3 immunocytochemistry. […] Cleaved caspase-3 immunoreactivity in groups was then evaluated as described for αSMA in the HSOCRE section. […]

## CC(=O)O[C@]1(C(C)=O)CC[C@H]2[C@@H]3C[C@H](C)C4=CC(=O)CC[C@]4(C)[C@H]3CC[C@@]21C [MPA, medroxyprogesterone acetate]
VSMCs [1]
  migration rate: 18.7%
VSMCs [2]
  apoptotic index: did not affect
VSMCs [2]; listed as WA
  apoptotic index: unaffected

## C#C[C@]1(O)CC[C@H]2[C@@H]3CCC4=CC(=O)CC[C@@H]4[C@H]3C(=C)C[C@@]21CC [ETO, etonogestrel]
VSMCs [1]
  migration rate: 29.6%
VSMCs [2]
  apoptotic index: unaffected; also recorded: did not affect

## CC(=O)[C@H]1CC[C@H]2[C@@H]3CCC4=CC(=O)CC[C@]4(C)[C@H]3CC[C@]12C [P4, progesterone]
VSMCs [1]
  migration rate: 39.4%
VSMCs [2]
  apoptotic index: unaffected
